Results as given in patent EP4745135A1 (Gluetacs Therapeutics (Shanghai) Co., Ltd., priority 2023, dated 2025).

Key:
[1] = target: T1, CK1α (Homo sapiens, UniProt P48729+Q96SW2); assay: Western blot, degradation of substrate protein in hPBMCs; format: cell-based
T1 construct: effects of the compounds of the present disclosure on the expression of target proteins in cells; endogenous in cells; host or cells: human PBMCs (Milecell Biotechnologies)
Protocol: (§1) Conventional Western blot assay was performed to evaluate the effects of the compounds of the present disclosure on the expression of target proteins in cells. • (1) Cell Seeding and Protein Harvesting: Human peripheral blood mononuclear cells (hPBMCs) at a density of 1×10^6 cells/mL were thawed according to the PBMC Recovery Protocol (Milecell Biotechnologies Inc, Shanghai). […] After 24 hours of compounds treatment, cells were harvested and lysed in RIPA protein lysate containing protease inhibitors on ice for 30 min, followed by centrifugation. The supernatant was aspirated as the extracted total cell protein. The protein concentration of the supernatant was determined using the conventional BCA (Bicinchoninic Acid) assay. • (2) To the collected supernatant, 5X SDS sample loading buffer was added, followed by denaturation at 95°C for 5 minutes. The denatured samples were then separated by SDS-PAGE electrophoresis on a polyacrylamide gel, transferred onto a nitrocellulose membrane (0.45 µm NC membrane), blocked with blocking buffer at room temperature for 1 hour, and subjected to antibody incubation and development procedures according to the antibody manufacturer's instructions (Cell Signaling Technology Company).
(§2) Half-Maximal Degradation Concentration value (the drug concentration required for degrading proteins by 50%, abbreviated as DC50) reads method: comparing the grayscale values of Western blot bands from drug-treated samples with those from blank DMSO-treated controls, and identifying the drug concentration range at which the grayscale value is half that of the DMSO-treated control bands.
(§3) DC50 values can be calculated using ImageJ software to measure grayscale values of Western blot bands from drug-treated samples. The concentration-response curve is fitted to estimate the drug concentration corresponding to half the grayscale value.
(§4) Target protein remaining (%) refers to the percentage of target protein remaining in cells after treatment with protein degrader compounds.
(§5) Calculation method for target protein remaining (%): Use ImageJ software to measure grayscale values of Western blot bands from drug (protein degrader)-treated samples. The grayscale value of drug-treated bands is divided by that of internal control protein bands, and the resulting quotient is normalized to obtain the relative percentage of remaining target protein after protein degrader treatment.
(§6) Target protein degradation rate (%) = 1−target protein remaining (%). [formula]

[2] = target: T2, IKZF1 (Homo sapiens, UniProt Q13422+Q96SW2); assay: as above; format: cell-based
T2 construct: effects of the compounds of the present disclosure on the expression of target proteins in cells; endogenous in cells; host or cells: human PBMCs (Milecell Biotechnologies)
T2 sequence (Q13422 whole entry): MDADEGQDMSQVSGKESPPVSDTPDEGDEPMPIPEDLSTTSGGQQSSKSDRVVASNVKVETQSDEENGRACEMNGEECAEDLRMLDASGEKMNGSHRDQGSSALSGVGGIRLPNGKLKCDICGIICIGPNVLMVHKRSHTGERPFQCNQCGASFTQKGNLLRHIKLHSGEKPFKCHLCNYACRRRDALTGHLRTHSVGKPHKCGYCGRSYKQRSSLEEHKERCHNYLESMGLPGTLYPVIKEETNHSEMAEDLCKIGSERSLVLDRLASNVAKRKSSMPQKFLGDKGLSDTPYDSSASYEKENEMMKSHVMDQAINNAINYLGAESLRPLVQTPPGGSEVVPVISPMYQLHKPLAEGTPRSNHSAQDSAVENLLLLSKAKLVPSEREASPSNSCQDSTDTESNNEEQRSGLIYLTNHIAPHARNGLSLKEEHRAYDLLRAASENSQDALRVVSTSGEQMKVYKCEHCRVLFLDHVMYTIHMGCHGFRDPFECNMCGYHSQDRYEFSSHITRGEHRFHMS
T2 sequence (Q96SW2 whole entry): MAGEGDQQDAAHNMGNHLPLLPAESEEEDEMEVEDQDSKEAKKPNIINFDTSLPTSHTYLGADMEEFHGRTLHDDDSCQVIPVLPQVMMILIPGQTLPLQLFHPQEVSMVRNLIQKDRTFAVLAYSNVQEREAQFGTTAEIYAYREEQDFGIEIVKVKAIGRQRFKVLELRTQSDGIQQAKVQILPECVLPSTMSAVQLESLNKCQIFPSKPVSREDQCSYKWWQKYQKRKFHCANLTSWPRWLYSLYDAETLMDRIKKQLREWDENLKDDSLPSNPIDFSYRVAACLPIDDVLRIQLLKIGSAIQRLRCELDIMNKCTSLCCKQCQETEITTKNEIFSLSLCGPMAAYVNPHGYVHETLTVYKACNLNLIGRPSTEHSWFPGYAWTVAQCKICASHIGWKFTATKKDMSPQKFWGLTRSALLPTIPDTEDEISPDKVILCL
T2 sequence (Q16531 whole entry partner): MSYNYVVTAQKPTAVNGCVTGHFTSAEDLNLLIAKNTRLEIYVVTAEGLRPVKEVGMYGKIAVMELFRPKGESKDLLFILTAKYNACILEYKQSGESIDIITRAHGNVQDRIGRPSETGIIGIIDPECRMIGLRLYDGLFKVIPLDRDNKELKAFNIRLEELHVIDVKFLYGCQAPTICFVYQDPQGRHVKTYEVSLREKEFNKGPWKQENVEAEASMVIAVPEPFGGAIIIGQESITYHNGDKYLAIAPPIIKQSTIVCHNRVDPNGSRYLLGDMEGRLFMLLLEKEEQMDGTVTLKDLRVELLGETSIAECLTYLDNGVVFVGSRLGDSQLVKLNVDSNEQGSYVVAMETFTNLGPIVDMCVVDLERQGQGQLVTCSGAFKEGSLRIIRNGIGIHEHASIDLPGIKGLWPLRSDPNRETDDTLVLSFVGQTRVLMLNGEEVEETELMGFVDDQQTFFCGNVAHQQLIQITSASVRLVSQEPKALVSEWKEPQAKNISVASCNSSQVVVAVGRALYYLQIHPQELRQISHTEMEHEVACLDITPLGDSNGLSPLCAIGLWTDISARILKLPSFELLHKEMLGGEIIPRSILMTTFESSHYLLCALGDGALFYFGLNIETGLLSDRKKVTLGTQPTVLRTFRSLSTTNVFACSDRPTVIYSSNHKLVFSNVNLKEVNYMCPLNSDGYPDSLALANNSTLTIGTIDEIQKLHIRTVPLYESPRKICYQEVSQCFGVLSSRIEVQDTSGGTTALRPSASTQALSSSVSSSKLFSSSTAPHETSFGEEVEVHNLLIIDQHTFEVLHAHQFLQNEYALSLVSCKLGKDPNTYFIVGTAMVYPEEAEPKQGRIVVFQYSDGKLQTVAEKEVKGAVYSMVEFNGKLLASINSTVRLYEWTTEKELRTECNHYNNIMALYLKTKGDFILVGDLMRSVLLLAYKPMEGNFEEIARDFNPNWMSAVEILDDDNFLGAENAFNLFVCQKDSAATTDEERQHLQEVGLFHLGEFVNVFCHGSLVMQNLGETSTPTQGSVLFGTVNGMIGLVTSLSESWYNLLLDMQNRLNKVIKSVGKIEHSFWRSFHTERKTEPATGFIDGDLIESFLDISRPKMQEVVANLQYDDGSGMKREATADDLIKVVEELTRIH
Protocol: as §1, §2, §3, §4, §5, §6

[3] = target: T3, IKZF2 (Homo sapiens, UniProt Q96SW2+Q9UKS7); assay: as above; format: cell-based
T3 construct: effects of the compounds of the present disclosure on the expression of target proteins in cells; endogenous in cells; host or cells: human PBMCs (Milecell Biotechnologies)
T3 sequence (Q9UKS7 whole entry): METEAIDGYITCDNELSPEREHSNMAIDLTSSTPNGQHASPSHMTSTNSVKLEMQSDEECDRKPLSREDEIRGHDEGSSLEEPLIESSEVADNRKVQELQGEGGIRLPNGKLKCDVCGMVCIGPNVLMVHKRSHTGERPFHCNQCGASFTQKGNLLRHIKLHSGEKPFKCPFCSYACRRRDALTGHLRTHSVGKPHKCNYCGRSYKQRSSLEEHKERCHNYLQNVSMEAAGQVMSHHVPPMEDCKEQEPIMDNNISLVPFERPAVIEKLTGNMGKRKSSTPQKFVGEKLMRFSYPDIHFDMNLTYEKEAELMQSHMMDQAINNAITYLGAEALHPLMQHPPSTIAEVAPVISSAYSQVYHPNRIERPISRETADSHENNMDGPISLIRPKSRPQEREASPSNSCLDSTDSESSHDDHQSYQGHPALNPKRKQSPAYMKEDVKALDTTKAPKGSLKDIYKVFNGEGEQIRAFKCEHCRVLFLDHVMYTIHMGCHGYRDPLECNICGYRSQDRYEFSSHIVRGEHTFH
T3 sequence (Q96SW2 whole entry): as the sequence (Q96SW2 whole entry) above
T3 sequence (Q16531 whole entry partner): as the sequence (Q16531 whole entry partner) above
Protocol: as §1, §2, §3, §4, §5, §6

[4] = target: T4, IKZF3 (Homo sapiens, UniProt Q96SW2+Q9UKT9); assay: as above; format: cell-based
T4 construct: effects of the compounds of the present disclosure on the expression of target proteins in cells; endogenous in cells; host or cells: human PBMCs (Milecell Biotechnologies)
T4 sequence (Q9UKT9 whole entry): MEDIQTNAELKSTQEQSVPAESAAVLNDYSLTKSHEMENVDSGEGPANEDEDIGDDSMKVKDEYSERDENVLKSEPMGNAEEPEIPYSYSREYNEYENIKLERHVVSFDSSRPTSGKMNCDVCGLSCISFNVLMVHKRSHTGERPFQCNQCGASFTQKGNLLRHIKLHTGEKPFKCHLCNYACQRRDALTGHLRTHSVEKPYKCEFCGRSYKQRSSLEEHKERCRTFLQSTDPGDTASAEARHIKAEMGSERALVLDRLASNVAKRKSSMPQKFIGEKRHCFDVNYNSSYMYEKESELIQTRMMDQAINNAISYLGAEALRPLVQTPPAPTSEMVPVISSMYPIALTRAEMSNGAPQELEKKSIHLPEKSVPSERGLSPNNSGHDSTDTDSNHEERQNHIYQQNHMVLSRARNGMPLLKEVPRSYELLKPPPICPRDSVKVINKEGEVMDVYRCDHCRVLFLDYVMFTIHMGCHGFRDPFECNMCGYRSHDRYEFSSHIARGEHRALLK
T4 sequence (Q96SW2 whole entry): as the sequence (Q96SW2 whole entry) above
T4 sequence (Q16531 whole entry partner): as the sequence (Q16531 whole entry partner) above
Protocol: as §1, §2, §3, §4, §5, §6

[5] = target: T5, WEE1 (Homo sapiens, UniProt P30291+Q96SW2); assay: as above; format: cell-based
T5 construct: effects of the compounds of the present disclosure on the expression of target proteins in cells; endogenous in cells; host or cells: human PBMCs (Milecell Biotechnologies)
T5 sequence (P30291 whole entry): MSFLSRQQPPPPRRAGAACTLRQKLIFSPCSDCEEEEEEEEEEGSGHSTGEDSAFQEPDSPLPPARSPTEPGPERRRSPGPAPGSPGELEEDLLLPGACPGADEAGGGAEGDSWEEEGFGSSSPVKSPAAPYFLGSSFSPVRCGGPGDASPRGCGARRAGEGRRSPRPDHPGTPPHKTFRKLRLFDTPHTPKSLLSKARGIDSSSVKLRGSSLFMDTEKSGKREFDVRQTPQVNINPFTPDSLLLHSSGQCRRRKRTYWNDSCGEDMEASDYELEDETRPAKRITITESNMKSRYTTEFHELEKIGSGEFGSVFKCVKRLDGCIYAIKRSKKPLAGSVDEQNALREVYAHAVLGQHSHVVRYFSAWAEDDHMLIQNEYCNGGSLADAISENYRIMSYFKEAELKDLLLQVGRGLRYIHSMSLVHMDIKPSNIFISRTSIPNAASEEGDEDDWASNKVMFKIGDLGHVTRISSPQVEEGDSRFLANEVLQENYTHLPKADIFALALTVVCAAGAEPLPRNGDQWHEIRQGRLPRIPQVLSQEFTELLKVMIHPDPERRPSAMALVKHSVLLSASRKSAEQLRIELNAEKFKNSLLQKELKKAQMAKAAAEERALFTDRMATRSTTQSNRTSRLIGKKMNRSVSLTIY
T5 sequence (Q96SW2 whole entry): as the sequence (Q96SW2 whole entry) above
T5 sequence (Q16531 whole entry partner): as the sequence (Q16531 whole entry partner) above
Protocol: as §1, §2, §3, §4, §5, §6

[6] = system: GSPT1; assay: as above; format: cell-based, Human
Protocol: as §1, §2, §3, §4, §5, §6

[7] = target: T6, human Cereblon WT GST-tagged protein (Homo sapiens, UniProt Q96SW2); assay: CRBN-binding affinity, HTRF (CEREBLON BINDING kit); conditions: for IC50: CRBN binding, HTRF, 3 hours at room temperature, read-out: HTRF IC50; for inhibition at 0.5 µM: read-out: Inhibition Rate at 0.5 µM (%); for inhibition at 2 µM: read-out: Inhibition Rate at 2 µM (%)
T6 construct: purchased CISBIO 64BDCRBNPEH
T6 sequence (Q96SW2 whole entry): as the sequence (Q96SW2 whole entry) above

[8] = Western blot, 24 hours of compound treatment, compounds tested at 50 nM and 500 nM (concentration for the table not stated)
[9] = 24 hours treatment, compounds at 50 nM and 500 nM (concentration behind the class not stated)

T1 sequence (P48729 whole entry): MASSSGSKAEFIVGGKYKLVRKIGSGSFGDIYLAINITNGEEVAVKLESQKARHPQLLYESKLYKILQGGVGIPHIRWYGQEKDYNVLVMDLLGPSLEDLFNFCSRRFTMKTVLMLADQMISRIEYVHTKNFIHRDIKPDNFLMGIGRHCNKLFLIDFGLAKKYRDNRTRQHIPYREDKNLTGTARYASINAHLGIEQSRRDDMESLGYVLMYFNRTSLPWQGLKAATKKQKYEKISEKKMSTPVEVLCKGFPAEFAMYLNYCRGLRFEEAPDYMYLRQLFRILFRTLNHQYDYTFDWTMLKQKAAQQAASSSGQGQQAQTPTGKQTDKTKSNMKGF
T1 sequence (Q96SW2 whole entry): as the sequence (Q96SW2 whole entry) above
T1 sequence (Q16531 whole entry partner): as the sequence (Q16531 whole entry partner) above

SMILES | IC50 [7] [nM] | inhibition at 0.5 µM [7] [%] | inhibition at 2 µM [7] [%] | CK1α substrate protein remaining % [1, 8] | IKZF 1 substrate protein remaining % [2, 8] | IKZF2 substrate protein remaining % [3, 8] | IKZF3 substrate protein remaining % [4, 8] | Wee1 substrate protein remaining % [5, 8] | GSPT1 substrate protein remaining % [6, 8] | CK1α substrate protein remaining % [1, 9] | IKZF 1 substrate protein remaining % [2, 9] | IKZF2 substrate protein remaining % [3, 9] | IKZF3 substrate protein remaining % [4, 9] | Wee1 substrate protein remaining % [5, 9] | GSPT1 substrate protein remaining % [6, 9]
Cc1ccc(N2CCN(Cc3ccc4c(c3)CN(C3CCC(=O)NC3=O)C4=S)CC2)s1 (centres unmarked) [GT-05110, 3-(5-((4-(5-methylthiophen-2-yl)piperazin-1-yl)methyl)-1-thioxoisoindolin-2-yl)piperidine-2,6-dione] | 100 to 500 | – | – | B (80%< substrate protein remaining %≤ 100%) | B (80%< substrate protein remaining %≤ 100%) | B (80%< substrate protein remaining %≤ 100%) | B (80%< substrate protein remaining %≤ 100%) | B (80%< substrate protein remaining %≤ 100%) | A (0% ≤ substrate protein remaining % ≤ 80%) | – | – | – | – | – | –
Cc1cscc1N1CCN(Cc2ccc3c(c2)CN(C2CCC(=O)NC2=O)C3=S)CC1 (centres unmarked) [GT-05113, 3-(5-((4-(4-methylthiophen-3-yl)piperazin-1-yl)methyl)-1-thioxoisoindolin-2-yl)piperidine-2,6-dione] | < 100 | – | – | B (80%< substrate protein remaining %≤ 100%) | A (0% ≤ substrate protein remaining % ≤ 80%) | B (80%< substrate protein remaining %≤ 100%) | A (0% ≤ substrate protein remaining % ≤ 80%) | B (80%< substrate protein remaining %≤ 100%) | A (0% ≤ substrate protein remaining % ≤ 80%) | – | – | – | – | – | –
O=C1CCC(N2Cc3cc(CN4CCC(c5ccco5)CC4)ccc3C2=S)C(=O)N1 (centres unmarked) [GT-05148, 3-(5-((4-(furan-2-yl)piperidin-1-yl)methyl)-1-thioxoisoindolin-2-yl)piperidine-2,6-dione] | 100 to 500 | – | – | B (80%< substrate protein remaining %≤ 100%) | B (80%< substrate protein remaining %≤ 100%) | B (80%< substrate protein remaining %≤ 100%) | B (80%< substrate protein remaining %≤ 100%) | B (80%< substrate protein remaining %≤ 100%) | A (0% ≤ substrate protein remaining % ≤ 80%) | – | – | – | – | – | –
CC1(C)CCC(CN2CCN(Cc3ccc4c(c3)CN(C3CCC(=O)NC3=O)C4=S)CC2)=C(c2ccc(Cl)cc2)C1 (centres unmarked) [GT-05151, 3-(5-((4-((4'-chloro-5,5-dimethyl-3,4,5,6-tetrahydro-[1,1'-biphenyl]-2-yl)methyl)piperazin-1-yl)methyl)-1-thioxoisoindolin-2-yl)piperidine-2,6-dione] | 500 to 1000 | – | – | B (80%< substrate protein remaining %≤ 100%) | A (0% ≤ substrate protein remaining % ≤ 80%) | A (0% ≤ substrate protein remaining % ≤ 80%) | A (0% ≤ substrate protein remaining % ≤ 80%) | A (0% ≤ substrate protein remaining % ≤ 80%) | A (0% ≤ substrate protein remaining % ≤ 80%) | – | – | – | – | – | –
O=C1CCC(N2Cc3cc(CN4CCN(C(c5ccccc5)c5ccncc5)CC4)ccc3C2=S)C(=O)N1 (centres unmarked) [GT-07733, 3-(5-((4-(phenyl(pyridin-4-yl)methyl)piperazin-1-yl)methyl)-1-thioxoisoindolin-2-yl)piperidine-2,6-dione] | – | 60 to 80 | 80 to 100 | B (80%< substrate protein remaining %≤ 100%) | B (80%< substrate protein remaining %≤ 100%) | B (80%< substrate protein remaining %≤ 100%) | A (0% ≤ substrate protein remaining % ≤ 80%) | A (0% ≤ substrate protein remaining % ≤ 80%) | A (0% ≤ substrate protein remaining % ≤ 80%) | – | – | – | – | – | –

Further lines, with some results ahead:

IC50 [7] [nM] | inhibition at 0.5 µM [7] [%] | inhibition at 2 µM [7] [%] | SMILES | CK1α substrate protein remaining % [1, 8] | IKZF 1 substrate protein remaining % [2, 8] | IKZF2 substrate protein remaining % [3, 8] | IKZF3 substrate protein remaining % [4, 8] | Wee1 substrate protein remaining % [5, 8] | GSPT1 substrate protein remaining % [6, 8] | CK1α substrate protein remaining % [1, 9] | IKZF 1 substrate protein remaining % [2, 9] | IKZF2 substrate protein remaining % [3, 9] | IKZF3 substrate protein remaining % [4, 9] | Wee1 substrate protein remaining % [5, 9] | GSPT1 substrate protein remaining % [6, 9]
100 to 500 | – | – | O=C1CCC(N2Cc3cc(CN4CC=C(c5cccc6cnccc56)CC4)ccc3C2=S)C(=O)N1 (centres unmarked) [GT-05246, 3-(5-((4-(isoquinolin-5-yl)-3,6-dihydropyridin-1(2H)-yl)methyl)-1-thioxoisoindolin-2-yl)piperidine-2,6-dione] | B (80%< substrate protein remaining %≤ 100%) | B (80%< substrate protein remaining %≤ 100%) | B (80%< substrate protein remaining %≤ 100%) | B (80%< substrate protein remaining %≤ 100%) | A (0% ≤ substrate protein remaining % ≤ 80%) | A (0% ≤ substrate protein remaining % ≤ 80%) | – | – | – | – | – | –
< 100 | – | – | O=C1CCC(N2Cc3ccccc3C2=S)C(=O)N1 (centres unmarked) [GT-05563, 3-(1-thioxoisoindolin-2-yl)piperidine-2,6-dione] | – | – | – | – | – | – | B (80%< substrate protein remaining %≤ 100%) | A (0% ≤ substrate protein remaining % ≤ 80%) | A (0% ≤ substrate protein remaining % ≤ 80%) | A (0% ≤ substrate protein remaining % ≤ 80%) | A (0% ≤ substrate protein remaining % ≤ 80%) | B (80%< substrate protein remaining %≤ 100%)
100 to 500 | – | – | O=C1CCC(N2Cc3ccc(CO)cc3C2=S)C(=O)N1 (centres unmarked) [GT-05566, 3-(6-(hydroxymethyl)-1-thioxoisoindolin-2-yl)piperidine-2,6-dione] | – | – | – | – | – | – | B (80%< substrate protein remaining %≤ 100%) | A (0% ≤ substrate protein remaining % ≤ 80%) | A (0% ≤ substrate protein remaining % ≤ 80%) | A (0% ≤ substrate protein remaining % ≤ 80%) | A (0% ≤ substrate protein remaining % ≤ 80%) | B (80%< substrate protein remaining %≤ 100%)
< 100 | – | – | O=C1CCC(N2Cc3cc(CO)ccc3C2=S)C(=O)N1 (centres unmarked) [GT-06977, 3-(5-(hydroxymethyl)-1-thioxoisoindolin-2-yl)piperidine-2,6-dione] | – | – | – | – | – | – | B (80%< substrate protein remaining %≤ 100%) | B (80%< substrate protein remaining %≤ 100%) | B (80%< substrate protein remaining %≤ 100%) | A (0% ≤ substrate protein remaining % ≤ 80%) | A (0% ≤ substrate protein remaining % ≤ 80%) | B (80%< substrate protein remaining %≤ 100%)
– | 53 to 60 | 80 to 100 | O=C1CCC(N2Cc3cc(CN4CCN(C(c5ccccc5)c5cccnc5)CC4)ccc3C2=S)C(=O)N1 (centres unmarked) [GT-07732, 3-(5-((4-(phenyl(pyridin-3-yl)methyl)piperazin-1-yl)methyl)-1-thioxoisoindolin-2-yl)piperidine-2,6-dione] | B (80%< substrate protein remaining %≤ 100%) | B (80%< substrate protein remaining %≤ 100%) | B (80%< substrate protein remaining %≤ 100%) | A (0% ≤ substrate protein remaining % ≤ 80%) | A (0% ≤ substrate protein remaining % ≤ 80%) | A (0% ≤ substrate protein remaining % ≤ 80%) | – | – | – | – | – | –
– | 60 to 80 | 80 to 100 | O=C1CCC(N2Cc3cc(CN4CCN(C(c5ccccn5)c5ccccn5)CC4)ccc3C2=S)C(=O)N1 (centres unmarked) [GT-07734, 3-(5-((4-(di(pyridin-2-yl)methyl)piperazin-1-yl)methyl)-1-thioxoisoindolin-2-yl)piperidine-2,6-dione] | B (80%< substrate protein remaining %≤ 100%) | B (80%< substrate protein remaining %≤ 100%) | B (80%< substrate protein remaining %≤ 100%) | A (0% ≤ substrate protein remaining % ≤ 80%) | A (0% ≤ substrate protein remaining % ≤ 80%) | A (0% ≤ substrate protein remaining % ≤ 80%) | – | – | – | – | – | –
